Our source for the Activity values is ChEMBL document CHEMBL1250444, “Nitric oxide activates TRP channels by cysteine S-nitrosylation” (Nat Chem Biol, 2006).

What all share (type): cell-based
Assay [1] has as its target T1, Short transient receptor potential channel 5 (Homo sapiens) (UniProt Q9UL62).
T1 sequence (whole entry): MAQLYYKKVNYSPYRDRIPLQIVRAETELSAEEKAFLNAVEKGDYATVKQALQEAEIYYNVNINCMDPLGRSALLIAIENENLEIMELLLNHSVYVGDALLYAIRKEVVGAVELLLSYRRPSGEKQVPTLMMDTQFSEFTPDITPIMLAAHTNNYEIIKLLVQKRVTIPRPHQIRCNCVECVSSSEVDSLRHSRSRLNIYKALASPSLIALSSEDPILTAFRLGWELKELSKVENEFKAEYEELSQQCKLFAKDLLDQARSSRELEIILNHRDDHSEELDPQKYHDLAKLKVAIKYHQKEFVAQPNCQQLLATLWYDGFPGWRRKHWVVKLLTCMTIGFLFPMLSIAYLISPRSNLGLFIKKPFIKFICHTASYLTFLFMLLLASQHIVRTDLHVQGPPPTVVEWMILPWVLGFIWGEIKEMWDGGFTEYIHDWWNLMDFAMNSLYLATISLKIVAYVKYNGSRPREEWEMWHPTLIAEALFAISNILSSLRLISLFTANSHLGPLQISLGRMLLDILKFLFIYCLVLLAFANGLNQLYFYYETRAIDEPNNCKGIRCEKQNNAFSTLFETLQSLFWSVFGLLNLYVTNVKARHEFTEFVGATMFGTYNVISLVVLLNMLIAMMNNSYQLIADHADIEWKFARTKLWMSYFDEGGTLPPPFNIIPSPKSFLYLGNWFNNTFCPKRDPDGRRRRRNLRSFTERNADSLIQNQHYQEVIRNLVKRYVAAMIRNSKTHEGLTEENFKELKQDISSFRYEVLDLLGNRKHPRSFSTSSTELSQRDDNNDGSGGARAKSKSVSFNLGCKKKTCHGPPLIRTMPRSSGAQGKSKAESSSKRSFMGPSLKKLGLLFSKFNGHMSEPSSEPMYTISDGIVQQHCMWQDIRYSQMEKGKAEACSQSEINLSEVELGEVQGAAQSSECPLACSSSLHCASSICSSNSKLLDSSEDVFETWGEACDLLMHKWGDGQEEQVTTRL
In words: Induction of S-nitrosylation of TRPC5 in HEK cells assessed as increase in Ca2+ level from extracellular space at 300 uM. The conditions noted are these: HEK293.

In assay [2] the target is T1, Short transient receptor potential channel 5 (Homo sapiens). Put plainly: Induction of S-nitrosylation of TRPC5 in HEK cells assessed as increase in Ca2+ level from extracellular space at 1 mM in presence of dithiothreitol. The conditions noted are these: HEK293.
The test system of a further assay is HEK293. In words: Activation of rat TRPV1 Cys616 mutant expressed in HEK cells assessed as increase in Ca2+ level from extracellular space at 0.1 to 1 mM.
For assay [3], the target named is Transient receptor potential cation channel subfamily V member 4 (Homo sapiens) (UniProt Q9HBA0). In words: Activation of TRPV4 in HEK cells assessed as increase in Ca2+ level from extracellular space at 300 uM. The conditions noted are these: HEK293.
The target of assay [4] is T1, Short transient receptor potential channel 5 (Homo sapiens). Put plainly: Induction of S-nitrosylation of TRPC5 in HEK cells assessed as increase in Ca2+ level from extracellular space at 10 uM. As to conditions: HEK293.
Assay [5] shares this target. In words: Induction of S-nitrosylation of TRPC5 in HEK cells assessed as increase in Ca2+ level from extracellular space at 30 uM in presence of ascorbic acid. The conditions noted are these: HEK293.
Assay [6] shares this target. In words: Induction of TRPC5 S-nitrosylation in chicken DT40 cells assessed as increase in Ca2+ level from extracellular space at 30 uM in presence of PLC-beta inhibitor U73122.
Assay [7] concerns T2, Short transient receptor potential channel 5 (Homo sapiens), Q9UL62 [C558S].
T2 sequence (whole entry): T1 sequence (whole entry) with C558S
In words: Decrease in TRPC5 C558S mutant S-nitrosylation in HEK cells assessed as inhibition of incorporation of DTNB-2Bio at 30 uM relative to control. As to conditions: HEK293.

Where a chain is given by its changes, count along the chain named. The source made the active and inactive calls. The calls are words filed in the database; no cut-off is given here.

Chain of Transient receptor potential cation channel subfamily V member 4 (Homo sapiens) (Q9HBA0 whole entry): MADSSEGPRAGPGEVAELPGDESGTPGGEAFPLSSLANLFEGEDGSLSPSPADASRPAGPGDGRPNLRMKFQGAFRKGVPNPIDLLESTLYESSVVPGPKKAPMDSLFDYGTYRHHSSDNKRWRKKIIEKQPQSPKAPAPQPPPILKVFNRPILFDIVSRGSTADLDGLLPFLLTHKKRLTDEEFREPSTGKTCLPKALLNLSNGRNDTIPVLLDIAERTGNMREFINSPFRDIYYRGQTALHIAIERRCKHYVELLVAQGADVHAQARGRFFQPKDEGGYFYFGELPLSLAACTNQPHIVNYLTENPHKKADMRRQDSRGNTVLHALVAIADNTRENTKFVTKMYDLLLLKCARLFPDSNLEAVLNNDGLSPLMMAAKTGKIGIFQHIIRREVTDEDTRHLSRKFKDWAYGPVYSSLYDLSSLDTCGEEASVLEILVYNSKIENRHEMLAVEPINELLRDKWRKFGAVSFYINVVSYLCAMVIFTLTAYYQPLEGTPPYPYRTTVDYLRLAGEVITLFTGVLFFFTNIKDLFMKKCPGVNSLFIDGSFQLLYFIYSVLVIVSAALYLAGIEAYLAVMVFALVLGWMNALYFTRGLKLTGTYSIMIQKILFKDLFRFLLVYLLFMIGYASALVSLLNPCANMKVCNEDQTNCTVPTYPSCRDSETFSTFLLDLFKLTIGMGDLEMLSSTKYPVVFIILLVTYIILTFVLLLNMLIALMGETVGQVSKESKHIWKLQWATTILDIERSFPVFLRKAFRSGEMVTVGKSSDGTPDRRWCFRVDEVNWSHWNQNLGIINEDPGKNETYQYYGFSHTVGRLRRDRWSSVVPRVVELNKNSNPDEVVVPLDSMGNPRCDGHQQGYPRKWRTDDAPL

Turning to `CC(=O)N[C@@H](C(=O)O)C(C)(C)SN=O` (racemic), the result in assay [1], in assay [3] and in assay [4] was Active. The result (in assay [2]; with HEK293) was inactive.
For `O=[N+]([O-])c1ccc(SSc2ccc([N+](=O)[O-])cn2)nc1`, the outcome in assay [5], in assay [6] and in assay [7] was Active.
